Assay results published in patent US6011014A, “Peptide T and related peptides in the treatment of inflammation, including multiple sclerosis” (Advanced Immunit, Inc., priority 1998, dated 2000).
Square brackets hold non-standard residues; d marks the D form. Peptide text beside a SMILES is read from it.

Assays:
[1] = tested on: PBMC; experiment: mitogen-induced lymphoproliferation (Example 17, 20); type: cell-based, human; conditions: Con A-induced proliferation measured daily, 10^-9 M; FIG. 3
Method: Concanavalin A (Con A), pokeweed mitogen, (PWM) and phytohaemagglutin-P (PHA-P) were obtained from Sigma Chemical Co. (St. Louis, Mo., U.S.A.). Peptide T was synthesised by Carlbiotech Ltd (Copenhagen, Denmark) and supplied as the chloride salt at 8.5 mg/ml in 0.9% benzyl alcohol as a preservative and was stored at 4° C. Peptide T was diluted to working solutions in culture medium (RPMI). Dilute solutions of Peptide T were prepared fresh from stock Peptide T for each experiment. ^3 H-thymidine (5 Ci/mmol) was obtained from Amersham.
Isolation of PBMC: Whole blood from healthy, adult volunteers was drawn into heparin and peripheral blood mononuclear cells (PBMC) isolated by density gradient centrifugation on HISTOPAQUE™ (Sigma Chemical Co). PBMC were removed from the interface, washed three times in RPMI containing gentamycin (100 μg/ml) and resuspended to 1×10^6 PBMC/ml in RPMI containing 10% foetal bovine serum and gentamycin. 10^5 PBMC were cultured in the presence of 100 μl of mitogen suspension in 96 well plates. […] The amount of incorporated ^3 H-thymidine was determined using a BECKMAN™ LS8000 liquid scintillation counter and proliferation expressed as either counts per minute (cpm) or as a proliferation index (PI). […]
10^5 PBMC were cultured in the presence of PWM, Con A or PHA (see Example 17). […] Data were analysed by two sample ANOVA using 95% confidence limits.

[2] = tested on: MO/MAC cytotoxicity against K562 target cells; experiment: macrophage cytotoxicity assay; type: cell-based, human; conditions: Peptide T added with target cells (step 2) or every day; FIG. 7
Method: The MO/MAC cytotoxicity assay is a two step assay. After isolation of adherent cells (mainly MO/MAC) from PBMC, MO/MAC are activated by lymphokines (including IFN gamma and LPS. Subsequent to washing which removes activators, ^3 H-thymidine labelled K562 target cells were added to activated MO/MAC and incubated for 3 days. The degree of cytotoxicity was proportional to the amount of radioactive label released into the culture supernatant, is shown in the following scheme: […]

[3] = tolerability of Peptide T therapy; type: in vivo, human; conditions: patients
From the text: Cyclosporine is an anti-inflammatory drug that inhibits lymphocyte proliferation by inhibiting IL-2 and IFN γ gene transcription by binding to and inactivating cyclophilin, an isomerase required for signal transduction (Halloran et al, Clin. Biochem. 24 3-7 (1991)). […] Cyclosporine induced side effects include renal tubular atrophy, nephrotoxicity, hypertension, hirsutism, gingival hypertrophy, tremors, convulsions and paresthesia (Briggs J.D. Immunol. Lett. 29 89-94 (1991)).

[4] = pharmacokinetics of Peptide T; conditions: following administration in vivo
From the text: Initial research in this area was focused on the CNS for two reasons: a high concentration of CD4 molecules was found on neurons and one of the major effect of HIV infection is the development of neurocognitive dysfunction.
1. Macrophages may be more sensitive to Peptide T than are T cells, since T cells receive many more potential activating signals than the CD4/MHC II interaction. Thus macrophages may be down regulated by Peptide T administration on the first day of in vitro culture inhibiting their ability to present mitogens and antigens to T cells. B cells can act as APC in place of macrophages when presenting antigen, but not when presenting mitogens which are antigen non-specific (explaining the results of Table III). Resting B cells are resistant to Peptide T as they are CD4 negative. In the presence of a single dose of Peptide T, they could present antigen to T cells allowing proliferation of PBMC in response to antigen. When Peptide T is given on a daily basis in cultured T cells, which may be less sensitive to the effects of Peptide T, then macrophages may be inhibited. Daily administration of Peptide T in vivo, may not function as it does on a daily basis in vitro, since the half life of Peptide T in vivo is shorter than in vitro. In vitro serum supplements are heat inactivated to destroy proteolytic enzymes which actively degrade Peptide T in vivo. […]

[5] = tested on: Mice bearing Meth A ascites tumours; experiment: LPS toxicity in Meth A ascites tumour bearing mice; type: in vivo, mouse; conditions: 100 μg LPS s.c. + 1 mg analogue; for % mice surviving 41 hours: LPS + BSA 60; for % mice with diarrhoea at 19 hrs / % mice with exudate at 19 hrs: LPS + BSA 100
Method: Mice bearing Meth A ascites tumours were given 100 μg LPS subcutaneously with either bovine serum albumin (BSA) or peptide T analogue (504 or 505, 1 mg). The number of animals showing signs of LPS toxicity (diarrhoea, exudate from the eyes and general level of activity) in each group was recorded at 19, 24 and 41 hours after injection. At the completion of the experiment the number of surviving animals was recorded (see Table II below) and the survivors bled for later determination of TNF, IL-1 , IL-6 and RNI levels.

[6] = tested on: human neutrophils; experiment: LPS-induced neutrophil chemiluminescence; type: cell-based; conditions: LPS 0.005 μg/ml; FIG. 14
Method: (§1) Neutrophils were isolated from whole blood from healthy blood donors. Separation was achieved by the rapid-single-step method of centrifugation of whole blood on FICOLL-HYPAQUE™. These were >99% viable and usually >98% pure.
(§2) To 100 μl of 500-1000 U/ml of TNF was added 10 μl of peptide and after 5 min 100 μl of 1×10^7 neutrophils/ml was added. The cells further incubated at 37° C. /20 min and then tested for chemiluminescence activity. In some cases an agonist such as fMLP (10^-7 M) was added. Chemiluminescence was measured in a luminometer (LKB). The results for Peptide T are presented in FIG. 12 as peak rate of CL release. Lucigenin-dependent chemiluminescence was measured: this represents superoxide measurement. In another set of experiments the effects of analogue 505 on the LPS-induced neutrophil chemiluminescence were examined. In this case the LPS was essentially substituted for the TNF. The concentration of LPS was 0.005 μg/ml.

[7] = tested on: human neutrophils; experiment: TNF-induced neutrophil chemiluminescence; type: cell-based; conditions: FIG. 13
Method: as §1
TNF was a recombinant product produced in E. coli. Peptide T and analogue 505 (D-Ser-Ser-D-Thr-Thr-D-Thr-Thr-Tyr-D-Thr) were resuspended in Hank's Balanced Salt Solution (HBSS).
as §2

Structure (SMILES) | cytotoxicity for responding lymphocytes [1] | cytotoxicity of activated MO/MAC [2] | side effects attributable to Peptide T therapy [3] | peak plasma concentrations [4] [nM] | % mice surviving 41 hours [5] [%] | % mice with diarrhoea at 19 hrs [5] [%] | % mice with exudate at 19 hrs [5] [%] | LPS activation of human neutrophils (chemiluminescence) [6] | TNF priming and activation of human neutrophils (chemiluminescence) [7]
C[C@@H](N)C(=O)N[C@@H](CO)C(=O)N[C@H](C(=O)N[C@H](C(=O)N[C@H](C(=O)N[C@@H](CC(N)=O)C(=O)N[C@@H](Cc1ccc(O)cc1)C(=O)N[C@H](C(N)=O)[C@@H](C)O)[C@@H](C)O)[C@@H](C)O)[C@@H](C)O [Peptide T, D-Ala-Ser-Thr-Thr-Thr-Asn-Tyr-Thr-Amide] | not cytotoxic | inhibit the cytotoxicity | no significant side effects | 55 | – | – | – | – | –
C[C@H](O)[C@@H](NC(=O)[C@H](Cc1ccc(O)cc1)NC(=O)[C@H](CC(N)=O)NC(=O)[C@H](NC(=O)[C@@H](NC(=O)[C@H](NC(=O)[C@H](CO)NC(=O)[C@@H](C)N)[C@H](C)O)[C@@H](C)O)[C@H](C)O)C(N)=O [compound 504, H-D-Ala-Ser-D-Thr-Thr-D-Thr-Asn-Tyr-D-Thr-NH2] | – | – | – | – | 100 | 40 | 60 | – | –
C[C@H](O)[C@@H](NC(=O)[C@H](Cc1ccc(O)cc1)NC(=O)[C@@H](NC(=O)[C@H](NC(=O)[C@@H](NC(=O)[C@H](NC(=O)[C@H](CO)NC(=O)[C@H](N)CO)[C@H](C)O)[C@@H](C)O)[C@H](C)O)[C@@H](C)O)C(N)=O [compound 505, H-D-Ser-Ser-D-Thr-Thr-D-Thr-Thr-Tyr-D-Thr-NH2] (H-[dS]S[dT]T[dT]TY[dT]-NH2) | – | – | – | – | 100 | 40 | 20 | inhibits LPS activation of human neutrophils | inhibits TNF priming and activation of human neutrophils
